In the experiment the target is human TYK2 (JH2domain-pseudokinase) (Homo sapiens (Human), UniProt P29597). Briefly: TYK2 JH2 Domain Binding Assay (KINOMEscan, DiscoveRx). The note with it: 11-point dilution, duplicate. On the procedure:
Binding constants for compounds of the present invention against the JH2 domain were determined by the following protocol for a KINOMEscan® assay (DiscoveRx). A fusion protein of a partial length construct of human TYK2 (JH2domain-pseudokinase) (amino acids G556 to D888 based on reference sequence NP_003322.3) and the DNA binding domain of NFkB was expressed in transiently transfected HEK293 cells. From these HEK 293 cells, extracts were prepared in M-PER extraction buffer (Pierce) in the presence of Protease Inhibitor Cocktail Complete (Roche) and Phosphatase Inhibitor Cocktail Set II (Merck) per manufacturers' instructions. The TYK2 (JH2domain-pseudokinase) fusion protein was labeled with a chimeric double-stranded DNA tag containing the NFkB binding site (5′-GGGAATTCCC-3′) fused to an amplicon for qPCR readout, which was added directly to the expression extract (the final concentration of DNA-tag in the binding reaction is 0.1 nM).
Streptavidin-coated magnetic beads (Dynal M280) were treated with a biotinylated small molecule ligand for 30 minutes at room temperature to generate affinity resins the binding assays. The liganded beads were blocked with excess biotin and washed with blocking buffer (SeaBlock (Pierce), 1% BSA, 0.05% Tween 20, 1 mM DTT) to remove unbound ligand and to reduce nonspecific binding.
The binding reaction was assembled by combining 16 μl of DNA-tagged kinase extract, 3.8 μl liganded affinity beads, and 0.18 μl test compound (PBS/0.05% Tween 20/10 mM DTT/0.1% BSA/2 μg/ml sonicated salmon sperm DNA)]. Extracts were used directly in binding assays without any enzyme purification steps at a ≥10,000-fold overall stock dilution (final DNA-tagged enzyme concentration <0.1 nM). Extracts were loaded with DNA-tag and diluted into the binding reaction in a two step process. First extracts were diluted 1:100 in 1× binding buffer (PBS/0.05% Tween 20/10 mM DTT/0.1% BSA/2 μg/ml sonicated salmon sperm DNA) containing 10 nM DNA-tag. This dilution was allowed to equilibrate at room temperature for 15 minutes and then subsequently diluted 1:100 in 1× binding buffer. Test compounds were prepared as 111× stocks in 100% DMSO. Kds were determined using an 11-point 3-fold compound dilution series with three DMSO control points. All compounds for Kd measurements are distributed by acoustic transfer (non-contact dispensing) in 100% DMSO. The compounds were then diluted directly into the assays such that the final concentration of DMSO was 0.9%. All reactions performed in polypropylene 384-well plates. Each was a final volume of 0.02 mL. Assays were incubated with shaking for 1 hour at room temperature. Then the beads were pelleted and washed with wash buffer (1×PBS, 0.05% Tween 20) to remove displaced kinase and test compound. The washed based were re-suspended in elution buffer (1×PBS, 0.05% Tween 20, 0.5 μM non-biotinylated affinity ligand) and incubated at room temperature with shaking for 30 minutes. The kinase concentration in the eluates was measured by qPCR. qPCR reactions were assembled by adding 2.5 μL of kinase eluate to 7.5 μL of qPCR master mix containing 0.15 μM amplicon primers and 0.15 μM amplicon probe. The qPCR protocol consisted of a 10 minute hot start at 95° C., followed by 35 cycles of 95° C. for 15 seconds, 60° C. for 1 minute.
Test compounds were prepared as 111× stocks in 100% DMSO. Kds were determined using an 11-point 3-fold compound dilution series with three DMSO control points. All compounds for Kd measurements are distributed by acoustic transfer (non-contact dispensing) in 100% DMSO. The compounds were then diluted directly into the assays such that the final concentration of DMSO was 0.9%. The Kds were determined using a compound top concentration of 30,000 nM. Kd measurements were performed in duplicate.
Binding constants (Kds) were calculated with a standard dose-response curve using the Hill equation: […]
The Hill Slope was set to −1. […]
Chain of human TYK2 (JH2domain-pseudokinase) (P29597 556-888): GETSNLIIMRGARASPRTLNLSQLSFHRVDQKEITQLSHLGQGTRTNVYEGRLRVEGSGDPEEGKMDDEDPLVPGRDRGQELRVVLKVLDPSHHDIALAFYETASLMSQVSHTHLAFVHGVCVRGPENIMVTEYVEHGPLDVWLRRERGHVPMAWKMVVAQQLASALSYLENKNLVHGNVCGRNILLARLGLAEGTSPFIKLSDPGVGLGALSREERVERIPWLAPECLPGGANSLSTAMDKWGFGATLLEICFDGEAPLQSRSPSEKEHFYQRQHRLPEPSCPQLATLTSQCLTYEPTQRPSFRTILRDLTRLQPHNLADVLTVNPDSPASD
Broadly, the Kd is the equilibrium constant for the complex coming apart. A high value points to lower affinity. Turning to `COc1c(Nc2cc(NC(=O)C3CC3)nc3[nH]c(C(F)F)nc23)cccc1-c1ncn(C)n1` [I-13, N-(2-(difluoromethyl)-7-((2-methoxy-3-(1-methyl-1H-1,2,4-triazol-3-yl)phenyl)amino)-3H-imidazo[4,5-b]pyridin-5-yl)cyclopropanecarboxamide], the Kd is 0.1 to 0.5 nM.

For the compound `COc1c(Nc2cc(NC(=O)C3CC3)nc3[nH]c(C(F)F)nc23)cccc1-c1nnn(C)n1` [I-14, N-(2-(difluoromethyl)-7-((2-methoxy-3-(2-methyl-2H-tetrazol-5-yl)phenyl)amino)-3H-imidazo[4,5-b]pyridin-5-yl)cyclopropanecarboxamide], the Kd lay in the range of 0.1 to 0.5 nM.

Consider `COc1cc(C(=O)N2CCOCC2)ccc1Nc1cc(NC(=O)C2CC2)nc2[nH]c(C(F)F)nc12` [I-15, N-(2-(difluoromethyl)-7-((2-methoxy-4-(morpholine-4-carbonyl)phenyl)amino)-3H-imidazo[4,5-b]pyridin-5-yl)cyclopropanecarboxamide], for which the dissociation constant (Kd) was 1 to 10 nM.

As for `COc1cc(C(=O)N2CCC2)ccc1Nc1cc(NC(=O)C2CC2)nc2[nH]c(C(F)F)nc12` [I-16, N-(7-((4-(azetidine-1-carbonyl)-2-methoxyphenyl)amino)-2-(difluoromethyl)-3H-imidazo[4,5-b]pyridin-5-yl)cyclopropanecarboxamide], the Kd lay in the range of 0.5 to 1 nM.

As to `COc1c(Nc2cc(Nc3cccc(C#N)n3)nc3[nH]c(C(F)F)nc23)cccc1-c1nnn(C)n1` [I-17, 6-((2-(difluoromethyl)-7-((2-methoxy-3-(2-methyl-2H-tetrazol-5-yl)phenyl)amino)-3H-imidazo[4,5-b]pyridin-5-yl)amino)picolinonitrile], the Kd fell in the range of 0.1 to 0.5 nM.

`COc1cc(N2CCCC2=O)ccc1Nc1cc(NC(=O)C2CC2)nc2[nH]c(C(F)F)nc12` [I-18] came in with a Kd of 1 to 10 nM.

Compound `COc1c(Cl)cccc1Nc1cc(NC(=O)C2CC2)nc2[nH]c(C(F)F)nc12` [I-19, N-(7-((3-chloro-2-methoxyphenyl)amino)-2-(difluoromethyl)-3H-imidazo[4,5-b]pyridin-5-yl)cyclopropanecarboxamide] returned a Kd greater than 10 nM.

Regarding `COc1c(F)cccc1Nc1cc(NC(=O)C2CC2)nc2[nH]c(C(F)F)nc12` [I-20, N-(2-(difluoromethyl)-7-((3-fluoro-2-methoxyphenyl)amino)-3H-imidazo[4,5-b]pyridin-5-yl)cyclopropanecarboxamide], the Kd is greater than 10 nM.

In the case of `COc1c(Nc2cc(Nc3cnc(C)c(C)n3)nc3[nH]c(C(F)F)nc23)cccc1-c1nnn(C)n1` [I-21, 2-(difluoromethyl)-N5-(5,6-dimethylpyrazin-2-yl)-N7-(2-methoxy-3-(2-methyl-2H-tetrazol-5-yl)phenyl)-3H-imidazo[4,5-b]pyridine-5,7-diamine], the Kd was 0.5 to 1 nM.

As for `COc1c(Nc2cc(Nc3ccc(N4CCC4)cn3)nc3[nH]c(C(F)F)nc23)cccc1-c1nnn(C)n1` [I-22, N5-(5-(azetidin-1-yl)pyridin-2-yl)-2-(difluoromethyl)-N7-(2-methoxy-3-(2-methyl-2H-tetrazol-5-yl)phenyl)-3H-imidazo[4,5-b]pyridine-5,7-diamine], the Kd lay in the range of 1 to 10 nM.

For the compound `COc1c(Nc2cc(Nc3ccc(N4CC(O)C4)cn3)nc3[nH]c(C(F)F)nc23)cccc1-c1nnn(C)n1` [I-23, I-(6-((2-(difluoromethyl)-7-((2-methoxy-3-(2-methyl-2H-tetrazol-5-yl)phenyl)amino)-3H-imidazo[4,5-b]pyridin-5-yl)amino)pyridin-3-yl)azetidin-3-ol], the Kd lay in the range of 1 to 10 nM.

On to `COc1c(Nc2cc(Nc3cccc(C#N)n3)nc3[nH]c(C(F)F)nc23)cccc1-c1ccn(C)n1` [I-25, 6-((2-(difluoromethyl)-7-((2-methoxy-3-(1-methyl-1H-pyrazol-3-yl)phenyl)amino)-3H-imidazo[4,5-b]pyridin-5-yl)amino)picolinonitrile], for which the Kd fell in the range of 0.1 to 0.5 nM.

These data come from patent US10647713B2 (Nimbus Lakshmi, Inc., priority 2016, dated 2020).
